Values quoted from earlier work in patent US5965741A, “Ortho-substituted aromatic ether compounds and their use in pharmaceutical compositions for pain relief” (Zeneca Limited, priority 1994, dated 1999).

Test system: EP1 receptors
Details: guinea pig ileum or dog fundus

block of the effect of PGE2: blocks the effect of PGE2
Compound: CC(=O)NNC(=O)N1Cc2ccccc2Oc2ccc(Cl)cc21 [SC-19220]
